The values below come from patent publication US20240002470A1, “Method for separation and/or detection and/or in vitro quantification of infectious compounds in biological material” (priority 2020, published 2024).

The subject of assay [1] is E. coli B6054. The assay can be described thus: Capture of E. coli B6054 on magnetic microbeads, culture on TS agar and counting. The assay is classed as binding, Escherichia coli. To be noted: E. coli B6054 colonies from captured beads.
Assay [2] relates to ISAV virus (Infectious salmon anemia virus). Kind of assay: Capture of ISAV virus on magnetic microbeads coated with pepβ2GPI, RT-PCR quantification. The assay is classed as binding. To be noted: for ISAV copies: virus captured on coated beads from culture supernatant. An excerpt:
The virus used is the ISAV virus (Infectious salmon anemia virus), responsible for anemia in salmon, originating from a culture supernatant.
The microbeads, intended to fix the virus, which are used are magnetic microbeads sold by the company MERCK under the name “Estapor® super-paramagnetic microspheres” which have a diameter between […].
(§1) The pepβ2GPI were grafted onto the microbeads according to the supplier's recommendations. In summary, the microbeads are suspended in phosphate buffer at a pH of 6.0. The beads are then activated, for 15 minutes, in the presence of 1-ethyl-3-(3-Dimethylaminopropyl) carbodiimide and N-hydroxysuccinimide. After washing with HCl, 2 mM, the beads are suspended in a phosphate buffer at a pH of 7.5, containing the pepβ2GPI. The concentration of pepβ2GPI in this coupling buffer is 20 mg/L; the microbeads are incubated in the buffer with gentle and constant shaking at a temperature of 25° C. for 3 hours. The microbeads are then centrifuged at 1,500 rpm and the supernatant is removed; the centrifugation pellet is suspended in the same buffer as that used for the coupling of pepβ2GPI, which forms the suspension of microbeads coated with pepβ2GPI which we want to test.
(§2) One hundred microliters of viral culture supernatant to be studied are placed in an Eppendorf tube with 900 microliters of Tris buffer at a pH of 7.5 and 10 microliters of microbeads. The tubes are shaken horizontally to mix the microbeads well, and each tube is incubated at 37° C. or at room temperature (RT=22° C.) for 30 minutes. In each tube, the microbeads are then separated from the liquid phase by means of a magnet, placed externally against the wall of the tube, and the viral RNA is extracted. The beads are brought into contact with a viral lysis buffer, included in an RNA extraction kit: QIAamp RNA viral kit, sold by QIAGEN and the viral RNA is isolated according to the seller's recommendations.
The RNA is then transcribed into complementary DNA, in the presence of reverse transcriptase, according to the following protocol:
Finally, the complementary DNA (cDNA) is amplified by chain reaction using a polymerase and quantified according to the following protocol: […]

The test system of assay [3] is IPN virus (Infectious pancreatic necrosis virus). The assay can be described thus: Capture of IPN virus on magnetic microbeads coated with pepβ2GPI, RT-PCR quantification. To be noted: for IPN Copies: virus captured on coated beads from culture supernatant. The class given is binding. Here is the method:
as §1, §2
The virus used is the IPN virus (Infectious pancreatic necrosis virus), responsible for necrosis of the pancreas in salmon, originating from a culture supernatant. The same protocol as described in example 1 was carried out.

In assay [4] the test system is Yeast. The assay can be described thus: Capture from blood culture on magnetic microbeads, culture on TS agar: yeast. The assay is classed as binding. The procedure: The beads, on which β2GPI and peptides derived therefrom were grafted, were used for the capture of bacteria present in human blood and highlighted by blood culture.
These blood cultures are carried out by placing a venous blood sample […] in aerobic vials of BacT/ALERT®3D type. These flasks are then incubated in an automated system at 35° C. for at least 5 days. The bottles are equipped with a colorimetric detection system with a sensor located at the base of each bottle. Carbon dioxide produced by growing bacteria changes the color of the sensor; this change in color is detected by an automated system and indicates the presence of bacterial growth: these blood cultures are said to be positive. In the BacT/ALERT®3D vials there are particles of activated carbon, which inhibit antibiotics potentially present in the blood of patients, thereby improving the detection of microorganisms. To confirm the presence of bacteria in blood cultures which have been found positive, the hospital performs a culture on blood agar. […]
To test the interaction of microbeads coated with β2GPI and the peptides derived from them, with bacteria present in the blood, 1 ml of blood culture is taken from each sample and placed in a 15 ml tube. […] The bacteria that have grown on the agar were then counted.

Assay [5] concerns HCV virus (hepatitis C virus). Kind of assay: Capture of HCV virus from patient plasma on magnetic microbeads coated with pepβ2GPI, RT-PCR quantification. As to conditions: for HCV/run copies: per run, virus captured on coated beads from plasma of patients. The class given is binding. The procedure: as §1, §2
The virus used is the HCV virus (hepatitis C virus), present in the plasma of patients. The same protocol as described in example 1 was carried out.

For the molecule H-((SSLAFWK)2-K)2-K—NH2 [Peptide P11], the “% compared to β2GPI” value is listed as 91% in assay [1]; “(140%)” in assay [2] (ISAV copies captured relative to β2GPI beads); “(175%)” in assay [3] (IPN copies captured relative to β2GPI beads); 89% in assay [4]; “(86%)” in assay [5] (HCV copies captured relative to β2GPI beads). Besides, the ISAV copies in assay [2] is reported as 78 350 copies. The “IPN Copies” value in assay [3] was 21 copies. The molecule also returned an HCV/run copies in assay [5] of 97 copies.

B1: β2GPI: plasma glycoprotein called β2-glycoprotein I, grafted on beads as the reference (protein, UniProt P02749 20-345, looked up)
Beta-2-glycoprotein 1: GRTCPKPDDLPFSTVVPLKTFYEPGEEITYSCKPGYVSRGGMRKFICPLTGLWPINTLKCTPRVCPFAGILENGAVRYTTFEYPNTISFSCNTGFYLNGADSAKCTEEGKWSPELPVCAPIICPPPSIPTFATLRVYKPSAGNNSLYRDTAVFECLPQHAMFGNDTITCTTHGNWTKLPECREVKCPFPSRPDNGFVNYPAKPTLYYKDKATFGCHDGYSLDGPEEIECTKLGNWSAMPSCKASCKVPVKKATVVYQGERVKIQEKFKNGMLHGDKVSFFCKNKEKKCSYTEDAQCIDGTIEVPKCFKEHSSLAFWKTDASDVKPC
modifications: grafted on beads
Turning to B1, the “% compared to β2GPI” value in assay [1] and in assay [4] was 100% each time. In addition, the ISAV copies in assay [2] is 55 800 copies. Also, the “IPN Copies” value in assay [3] is 12 copies. Also, in assay [5], the HCV/run copies is 113 copies.
